Laboratory results taken from publication PMC11762167, “G Protein-Coupled Receptor 17 Inhibits Glucagon-like Peptide-1 Secretion via a Gi/o-Dependent Mechanism in Enteroendocrine Cells” (Biomolecules, 2024).

Key:
Type in all cases: cell-based
hGPR17S = target: T1, hGPR17S (Homo sapiens, UniProt Q13304); assay: Calcium mobilization in HEK293 cells transfected with hGPR17S
T1 construct: host or cells: HEK293 cells (ATCC CRL-1573), transient transfection
Description: HEK293 cells were maintained and transfected as previously described.
Calcium flux in HEK293 cells was measured as previously described.

mGPR17 [1] = target: T2, mGPR17 (Mus musculus, UniProt Q6NS65); assay: Endpoint cAMP in GLUTag cells expressing mGPR17; set-up: host or cells: GLUTag cells, adenoviral transduction
Description: (§1) GLUTag cells were maintained in Dulbecco’s Modified Eagle Medium (DMEM) supplemented with 10% fetal bovine serum and 1% penicillin–streptomycin in a humidified incubator at 37 °C and 5% CO2. For adenovirus transduction, GLUTag cells were seeded into poly-D-lysine coated 96-well plates or 4-chamber slides. The next day, cells were transduced with adenoviruses (100–1250 viral particles per cell at time of seeding) as indicated. After 24–30 h, adenovirus-containing media was changed to serum-free growth media for overnight serum starvation. The following day, GLUTag cells were used for cAMP or calcium signaling assays, GLP-1 secretion assays, or immunostaining and imaging.
Endpoint cAMP measurements were conducted as follows. GLUTag cells were seeded into poly-D-lysine-coated 96-well plates and transduced with adenovirus as specified above and then tested for cAMP signaling. Medium was removed and cells were washed with cAMP stimulation buffer (Hanks’ balanced salt solution (HBSS), 20 mM HEPES, pH 7.4) and then incubated in cAMP stimulation buffer for 30 min at 37 °C and 5% CO2. Cells were then treated for 30 min with agonist and forskolin in the presence of 500 µM IBMX at 37 °C and 5% CO2. Stimulation buffer was then decanted, and cAMP lysis buffer (50 mM HEPES, 10 mM CaCl2, 0.35% Triton X-100, and 500 µM IBMX) was added and shaken at 700 rpm for 1 h. Lysate was transferred to a 384-well plate, and the cAMP levels were quantified using the Cisbio HTRF cAMP (Gi kit; Revvity, Waltham, MA, USA) according to the manufacturer’s protocol.

hGPR17L-V96M [2] = target: T3, hGPR17L-V96M (Homo sapiens, UniProt Q13304, V96M); assay: Calcium flux in GLUTag cells expressing hGPR17L-V96M; settings: for Mean Diff. (Tukey's multiple comparisons test, Figure 4C): hGPR17L-V96M
T3 construct: host or cells: GLUTag cells, adenoviral transduction
Description: as §1
(§2) GLUTag cells were seeded into black, clear bottom, poly-D-lysine-coated 96-well plates. Cells were transduced and serum starved as specified above. Growth medium was then replaced with 100 μL/well assay buffer (HBSS, 20 mM HEPES, pH 7.4) and 100 μL/well Calcium 6 loading dye (R8190; Molecular Devices, San Jose, CA, USA). During dye loading, cells were incubated at 37 °C and 5% CO2 for 2 h. MDL29,951 or KCl was added to the wells and fluorescence (485 nm excitation, 525 nm emission, and 515 nm automatic emission cutoff) was measured using a Molecular Devices FlexStation3 (Molecular Devices) at 37 °C. For experiments with PTX, cells were pretreated with 100 ng/mL PTX overnight and 100 ng/mL PTX was included with Calcium 6 loading dye for calcium flux assays. For experiments with YM-254890, cells were pretreated for 30 min at 37 °C.

mGPR17 [3] = target: T2, mGPR17; assay: Calcium flux in GLUTag cells expressing mGPR17; set-up: host or cells: GLUTag cells, adenoviral transduction; settings: for Mean Diff. (Tukey's multiple comparisons test, Figure 4C): mGPR17
Description: as §1, §2

hGPR17L = hGPR17L (Homo sapiens, UniProt Q13304); assay: GLP-1 secretion from GLUTag cells expressing hGPR17L; set-up: host or cells: GLUTag cells (murine enteroendocrine line), adenoviral transduction
Description: as §1
(§3) GLUTag cells were seeded into poly-D-lysine-coated 96-well plates and transduced with adenovirus as specified above and then tested for GLP-1 secretion. Medium was removed and cells were washed two times with GLP-1 secretion buffer (138 mM NaCl, 4.5 mM KCl, 4.2 mM NaHCO3, 2.5 mM CaCl2, 1.2 mM MgCl2, 10 mM HEPES, 1 mM glucose, and 0.1% bovine serum albumin, pH 7.4). Cells were stimulated for 2 h with indicated treatments diluted in GLP-1 secretion buffer for a total volume of 200 µL/well at 37 °C and 5% CO2. Plates were then centrifuged at 300× g for 1 min at 4 °C, and 75 µL of the supernatant was removed and frozen at −80 °C until subsequent GLP-1 quantification. Total GLP-1 was quantified using the Meso Scale Discovery Total GLP-1 V-PLEX kit (Rockville, MD, USA; K1503PD) according to manufacturer’s instructions. For PTX treatment conditions, cells were pretreated with 100 ng/mL PTX overnight. For experiments with YM-254890, cells were pretreated for 15 min at 37 °C and 5% CO2.

hGPR17L-V96M [4] = target: T3, hGPR17L-V96M; assay: GLP-1 secretion from GLUTag cells expressing hGPR17L-V96M; settings: 100 µM MDL29,951, GLUTag hGPR17L-V96M
Description: as §1
as §3, with “Cells were stimulated for 2 h with indicated treatments diluted in GLP-1 secretion buffer for a total volume of 200 µL/well at 37 °C and 5% CO2.” left out, “For PTX treatment conditions, cells were pretreated with 100 ng/mL PTX overnight. For experiments with YM-254890, cells were pretreated for 15 min at 37 °C and 5% CO2.” left out

[5] = log [MDL29,951] (M) -4.5 vs. Vehicle
[6] = log [MDL29,951] (M) -5.0 vs. Vehicle
[7] = log [MDL29,951] (M) -5.5 vs. Vehicle
[8] = log [MDL29,951] (M) -6.0 vs. Vehicle
[9] = log [MDL29,951] (M) -6.4 vs. Vehicle
[10] = log [MDL29,951] (M) -6.9 vs. Vehicle
[11] = log [MDL29,951] (M) -7.4 vs. Vehicle
[12] = log [MDL29,951] (M) -7.9 vs. Vehicle
[13] = log [MDL29,951] (M) -8.3 vs. Vehicle
[14] = log [MDL29,951] (M) -8.8 vs. Vehicle

Chain of hGPR17L (Q13304 whole entry): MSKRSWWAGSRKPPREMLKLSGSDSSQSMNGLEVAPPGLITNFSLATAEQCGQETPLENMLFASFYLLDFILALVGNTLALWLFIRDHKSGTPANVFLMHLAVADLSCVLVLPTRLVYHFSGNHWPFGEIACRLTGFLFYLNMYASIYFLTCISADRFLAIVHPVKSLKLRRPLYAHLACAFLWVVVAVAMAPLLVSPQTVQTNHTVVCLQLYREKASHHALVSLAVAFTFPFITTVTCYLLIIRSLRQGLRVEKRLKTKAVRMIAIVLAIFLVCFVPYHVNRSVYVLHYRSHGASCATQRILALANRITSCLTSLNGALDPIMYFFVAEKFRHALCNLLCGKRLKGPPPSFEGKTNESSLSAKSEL
T1 sequence (Q13304 29-367): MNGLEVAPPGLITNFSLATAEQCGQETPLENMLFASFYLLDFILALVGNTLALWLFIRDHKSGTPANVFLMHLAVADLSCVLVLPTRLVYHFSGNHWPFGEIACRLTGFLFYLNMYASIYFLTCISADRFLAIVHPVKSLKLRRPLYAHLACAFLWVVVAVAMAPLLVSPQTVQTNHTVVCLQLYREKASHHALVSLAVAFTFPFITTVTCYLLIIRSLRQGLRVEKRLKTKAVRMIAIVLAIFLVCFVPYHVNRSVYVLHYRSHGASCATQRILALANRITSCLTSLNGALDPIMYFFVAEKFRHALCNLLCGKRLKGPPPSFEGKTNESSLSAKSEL
T3 sequence (Q13304 whole entry V96M): as the sequence (Q13304 whole entry) above, with V96M counted along it
T2 sequence (Q6NS65 whole entry): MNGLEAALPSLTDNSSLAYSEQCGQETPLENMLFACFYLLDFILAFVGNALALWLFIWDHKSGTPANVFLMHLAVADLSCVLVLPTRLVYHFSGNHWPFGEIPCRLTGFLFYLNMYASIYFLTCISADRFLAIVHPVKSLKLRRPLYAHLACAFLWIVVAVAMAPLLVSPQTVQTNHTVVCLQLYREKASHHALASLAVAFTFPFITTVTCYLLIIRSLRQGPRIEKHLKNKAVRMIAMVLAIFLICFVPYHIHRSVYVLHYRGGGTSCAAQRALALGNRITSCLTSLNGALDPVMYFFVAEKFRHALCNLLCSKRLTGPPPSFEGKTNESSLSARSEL

SMILES: O=C(O)CCc1c(C(=O)O)[nH]c2cc(Cl)cc(Cl)c12 [MDL29,951]
- Calcium Emax (Mean Peak ΔF/F) (hGPR17S): 1.84±0.11
- Calcium Potency (pEC50) (hGPR17S): 7.37±0.10
- EC50 (hGPR17S; read-out: Calcium Potency EC50): 0.043 µM
- concentration of maximal inhibition of forskolin-stimulated cAMP (mGPR17 [1]; 10 µM forskolin, GLUTag mGPR17): 1 µM
- Mean Diff. (Tukey's multiple comparisons test), cAMP, Row 10 vs. Row 11 (mGPR17 [1]; mGPR17 (100), log [MDL29,951] (M) -4.0 vs. Vehicle, Forskolin stimulation, Figure 4B): -19.04
- Mean Diff. (Tukey's multiple comparisons test), cAMP, Row 9 vs. Row 11 (mGPR17 [1]; mGPR17 (100), log [MDL29,951] (M) -4.6 vs. Vehicle, Forskolin stimulation, Figure 4B): -22.19
- Mean Diff. (Tukey's multiple comparisons test), cAMP, Row 8 vs. Row 11 (mGPR17 [1]; mGPR17 (100), log [MDL29,951] (M) -5.2 vs. Vehicle, Forskolin stimulation, Figure 4B): -23.87
- Mean Diff. (Tukey's multiple comparisons test), cAMP, Row 7 vs. Row 11 (mGPR17 [1]; mGPR17 (100), log [MDL29,951] (M) -5.8 vs. Vehicle, Forskolin stimulation, Figure 4B): -30.13
- Mean Diff. (Tukey's multiple comparisons test), cAMP, Row 6 vs. Row 11 (mGPR17 [1]; mGPR17 (100), log [MDL29,951] (M) -6.4 vs. Vehicle, Forskolin stimulation, Figure 4B): -28.75
- Mean Diff. (Tukey's multiple comparisons test), cAMP, Row 5 vs. Row 11 (mGPR17 [1]; mGPR17 (100), log [MDL29,951] (M) -7.0 vs. Vehicle, Forskolin stimulation, Figure 4B): -21.6
- Mean Diff. (Tukey's multiple comparisons test), cAMP, Row 4 vs. Row 11 (mGPR17 [1]; mGPR17 (100), log [MDL29,951] (M) -7.6 vs. Vehicle, Forskolin stimulation, Figure 4B): -16.65
- Mean Diff. (Tukey's multiple comparisons test), cAMP, Row 3 vs. Row 11 (mGPR17 [1]; mGPR17 (100), log [MDL29,951] (M) -8.2 vs. Vehicle, Forskolin stimulation, Figure 4B): -3.513
- Mean Diff. (Tukey's multiple comparisons test), cAMP, Row 2 vs. Row 11 (mGPR17 [1]; mGPR17 (100), log [MDL29,951] (M) -8.8 vs. Vehicle, Forskolin stimulation, Figure 4B): -3.853
- Mean Diff. (Tukey's multiple comparisons test), cAMP, Row 1 vs. Row 11 (mGPR17 [1]; mGPR17 (100), log [MDL29,951] (M) -9.4 vs. Vehicle, Forskolin stimulation, Figure 4B): -5.46
- maximal calcium stimulation, % of that observed for hGPR17L-WT (hGPR17L-V96M [2]; GLUTag hGPR17L-V96M): 27 ± 1.5%
- pEC50, calcium mobilization (hGPR17L-V96M [2]; GLUTag hGPR17L-V96M): 6.24 ± 0.07
- EC50 (hGPR17L-V96M [2]; GLUTag hGPR17L-V96M, read-out: EC50, calcium mobilization): 0.58 µM
- Mean Diff. (Tukey's multiple comparisons test, Figure 4C) (hGPR17L-V96M [2]; [5]): 27.53
- Mean Diff. (Tukey's multiple comparisons test, Figure 4C) (hGPR17L-V96M [2]; [6]): 24.23
- Mean Diff. (Tukey's multiple comparisons test, Figure 4C) (hGPR17L-V96M [2]; [7]): 21.87
- Mean Diff. (Tukey's multiple comparisons test, Figure 4C) (hGPR17L-V96M [2]; [8]): 17.65
- Mean Diff. (Tukey's multiple comparisons test, Figure 4C) (hGPR17L-V96M [2]; [9]): 11.95
- Mean Diff. (Tukey's multiple comparisons test, Figure 4C) (hGPR17L-V96M [2]; [10]): 4.328
- Mean Diff. (Tukey's multiple comparisons test, Figure 4C) (hGPR17L-V96M [2]; [11]): 1.581
- Mean Diff. (Tukey's multiple comparisons test, Figure 4C) (hGPR17L-V96M [2]; [12]): 0.8859
- Mean Diff. (Tukey's multiple comparisons test, Figure 4C) (hGPR17L-V96M [2]; [13]): 0.4181
- Mean Diff. (Tukey's multiple comparisons test, Figure 4C) (hGPR17L-V96M [2]; [14]): -0.03776
- maximal calcium stimulation, % of the hGPR17L-WT response (mGPR17 [3]; GLUTag mGPR17): 74 ± 2.7%
- pEC50, calcium responses (mGPR17 [3]; GLUTag mGPR17): 6.17 ± 0.04
- EC50 (mGPR17 [3]; GLUTag mGPR17, read-out: EC50, calcium responses): 0.68 µM
- Mean Diff. (Tukey's multiple comparisons test, Figure 4C) (mGPR17 [3]; [5]): 72.98
- Mean Diff. (Tukey's multiple comparisons test, Figure 4C) (mGPR17 [3]; [6]): 62.99
- Mean Diff. (Tukey's multiple comparisons test, Figure 4C) (mGPR17 [3]; [7]): 54.24
- Mean Diff. (Tukey's multiple comparisons test, Figure 4C) (mGPR17 [3]; [8]): 47.28
- Mean Diff. (Tukey's multiple comparisons test, Figure 4C) (mGPR17 [3]; [9]): 29.04
- Mean Diff. (Tukey's multiple comparisons test, Figure 4C) (mGPR17 [3]; [10]): 21.01
- Mean Diff. (Tukey's multiple comparisons test, Figure 4C) (mGPR17 [3]; [11]): 6.844
- Mean Diff. (Tukey's multiple comparisons test, Figure 4C) (mGPR17 [3]; [12]): -0.1174
- Mean Diff. (Tukey's multiple comparisons test, Figure 4C) (mGPR17 [3]; [13]): -1.354
- Mean Diff. (Tukey's multiple comparisons test, Figure 4C) (mGPR17 [3]; [14]): -0.5799
- concentration at which maximum inhibition of F/I-stimulated GLP-1 secretion was observed (hGPR17L): 25 µM
- effect on F/I-stimulated GLP-1 secretion (hGPR17L; 100 nM MDL29,951, 10 μM forskolin and 10 μM IBMX): no effect
- effect on GLP-1 secretion under basal conditions (hGPR17L; 100 nM or 100 µM MDL29,951, hGPR17L-transduced): no effect
- IC50 (hGPR17L; 10 µM forskolin and 10 µM IBMX, no antagonist, read-out: IC50, inhibition of F/I-stimulated GLP-1 secretion): 0.3 µM
- inhibition of F/I-stimulated GLP-1 secretion (hGPR17L; 100 μM MDL29,951): 30 ± 7.7%
- effect on PMA-stimulated GLP-1 secretion as compared to vehicle-treated cells (raw data) (hGPR17L; 100 µM MDL29,951, 300 nM PMA): significantly inhibited
- pIC50, inhibition of F/I-stimulated GLP-1 secretion (hGPR17L; no antagonist): 6.53 ± 0.31
- effect on F/I-stimulated GLP-1 secretion (hGPR17L-V96M [4]): no effect
